# Measured values: US11464840B2, “Universal non-classical MHC I vaccines: HLA-E-restricted antigenic peptides as universal vaccines to treat allergy, inflammation, autoimmune and infectious diseases, and cancers” (priority 2019, dated 2022)
# Several values for one entry are separate records, joined by “and”; a condition that tells them apart may be missing. Identical values can stand only once. Ends that are not written are not given here.
# What was measured:
# Derlin-1 mRNA [1] = assay: Derlin-1 mRNA knockdown by siRNA in monocyte-derived dendritic cells (qPCR, ΔΔCt); format: cell-based, human; conditions: MODC
# Method: (§1) Table 1: Summary of Derlin-1 Knockdowns with Various siRNAs. Cells transfected in 12 well plate at 60%-80% confluency. one ul Viromer blue was used per 1 ml final volume. Cells were lysed via centrifugation and resuspended in TRI reagent at time points of either 6 h, 24 h, and 48 h. Lysates were split for both protein verification and qPCR. Knockdowns are estimated using the ΔΔCt method. […] Anti-Derlin-1 siRNA was designed using MITs website (sirna.wi.mit.edu) and siRNA design software (dharmacon.horizondiscovery.com/rnai/sirna). SiRNA were chosen based on the criteria that they would bind no more than 15 nucleotides on off-target mRNA and that they would be capable of knockdown for all four of the Derlin-1 mRNA isoforms. Additionally, siRNAs with 40-60% GC content, no more than 3 identical nucleotides in a row, and 3′ UU overhangs were used. The first siRNA (SEQ ID NO: 65, 5′-[…]-3′) was purchased from TriLink Biotechnologies and the second (SEQ ID NO: 66, 5′-[…]-3′) was purchased from Horizon Discovery. A third, modified siRNA with sequence 5′-SEQ ID NO: 67, O′me/G/O′me/[…]-3′ and DNA bases on the 1st and 8th nucleotide of the antisense strand was also designed and purchased from Horizontal Discovery. Scramble siRNAs were purchased from Horizontal Discovery (D-001810-10-05, ON-TARGET plus Non-targeting Pool).
# Derlin-1 forms an integral part of the […] machinery required for transporting classical MHCI, e.g., HLA-A, -B, -C for proteasome degradation. […] In contrast, the protein band of Derlin-1 is entirely missing in Derlin-1 siRNA-treated MoDCs. Transfection of the primary cells were performed using PEI reagents (Viromer Blue vs. Viromer Red). The embodiment of the invention is three-fold. One aspect of the embodiment resides in treating APC with Derlin-1 RNA interference to prevent the generation of endogenous leader peptide as well as to cause dissociation of the HLA-E bound endogenous leader peptides so that Derlin-1-treated APC can be fully loaded with the HLA-E vaccines in the presence of the second costimulatory signal for immune induction.
# Derlin-1 mRNA [2] = assay: Derlin-1 mRNA knockdown by siRNA in T2 cells (qPCR, ΔΔCt); format: cell-based, human
# Method: as §1, with “Pool). […]” for “Pool).”
# HLA-E [3] = assay: Surface HLA-E expression in immature MoDC cells (FACS); format: cell-based, human; conditions: 100 nM SR11237, 100 nM Bexarotene or Interferon-β 1,000 U, 4 days
# Method: FIG. 5. […] MoDCs were then collected and stained with fluorescence-conjugated antibody; APC-conjugated anti-CD83 (Biolegend) and PE-conjugated HLA-E (Biolegend) followed by fixation with 2% paraformaldehyde. Phenotype and HLA-E expression of MoDCs were performed by using a FACS, LRSII flow cytometry and the data were processed by using the Flowjo software.
# HLA-G = assay: Surface HLA-G expression in PBMCs (FACS); format: cell-based, human; conditions: anti-CD3 coated plate, 4 days
# Method: (§2) FIG. 6. Modulation of surface HLA-G and HLA-E expression in PBMCs in present of interferon-β. Fresh buffy coat was obtained from San Diego blood blank. PBMCs (peripheral blood mononuclear cells) were isolated by density gradient centrifugation with Histopague-1077 (Sigma). 5×10^5 of PBMCs were seeded in anti-CD3 (10 μg/ml) coated 96 wells-plate and treated with interferon-I3 for 4 days. Cells were collected and stained with fluorescence-conjugated antibody; Alexa Fluor 488-conjugated anti-human CD8a (Biolegend), Pacific Blue-conjugated human CD4, APC-Cy7-conjugated human CD19 and PE conjugated-HLA-E or PE-Cy 7 conjugated HLA-G (Panel A) or HLA-E (Panel B), followed by fixation with 2% paraformaldehyde. Phenotype and HLA-E or HLA-G (Biolegend) expression were performed by using a FACS, LRSII flow cytometry and the data were processed as describe above.
# HLA-E [4] = assay: Surface HLA-E expression in PBMCs (FACS); format: cell-based, human; conditions: anti-CD3 coated plate, 4 days
# Method: as §2
# HLA-E [5] = assay: ELISA of renatured HLA-E binding to biotinylated leader peptide (C3N); parameters: species or system human
# Method: FIG. 2. […] ELISA for the interaction of denatured HLA-E or covalent HLA-E-β2 microglobulin fusion protein with biotinylated HLA-A2 leader peptide. 10 μg of denatured recombinant HLAE-β2 microglobulin fusion protein, or denatured HLA-E incubated with biotinylated A2 leader peptide (SEQ ID NO: 50, […]) with or without 10 μg β2 microglobulin in 50 μl buffer A (0.5 mM-Tris pH at 6.6) at 18° C. for two days. The complexes were then added into anti-HLA E antibody coated plate (2 μg/ml) and incubated for 1 hour. After washing three times with 1% BSA PBS, HRP-Avidin (Biolegend #405103, 1:1000) was used to detect bound biotinylated leader peptide.
# A conformation capture of canonical/non-canonical peptide (C3N) method to HLA-E is designed to test predicted HLA-E binding peptides. HLA-E canonical and nominal peptides predicted from the python algorithm of Igepredict program and any 9 to 12-mer made collinearly with an overlapping IgE sequence can be tested by a binding assay. […] The assay for intact re-natured conformation of HLA-E is dependent on gaining the binding signal using anti-HLA-E coated plate to capture re-natured HLA-E in the presence of beta 2 microglobulin and leader peptides.
# HLA-E [6] = assay: Upregulation of surface HLA-E by peptide nonamers in TAP-deficient T2 cells (FACS); format: cell-based, human; conditions: overnight incubation with peptide
# Method: FIG. 3. Upregulation of surface HLA-E by peptide nonamers. Screening 9-mers of IgE epitope that were able to induce surface HLA-E expression in tap deficient T2 cells. T2 cells were cultured overnight in present of Panel A: A2 leader peptide-SEQ ID NO: 51, […]) or IgE epitope, B5 (SEQ ID NO: 52, […]), B6 (SEQ ID NO: 53, […]), B8 (SEQ ID NO: 54, […]) and B9 (SEQ ID NO: 55, […]), SP4 (SEQ ID NO: 56, […]), SP7 (SEQ ID NO: 57, […]) and SP11 (SEQ ID NO: 58, […]), and Panel B: IgE epitope of Mixture1 (SEQ ID NO: 59, […], […], […], […] and […]), Mixture2 (SEQ ID NO: 60: […], […], […], […] and […]), and Mixture 3 (SEQ ID NO: 61, […], SGYTPGTIN, […], […] and TINITWLED) at the concentration of 100 μg/ml. Cells were then collected and stained with PE conjugated HLA E followed by FACS flow cytometry analysis.
# FIG. 12. Screening of IgE epitope 9-mer which can induce surface HLA-E expression in TAP-deficient T2 cells. Peptide E33 ([…], SEQ ID NO: 68) was predicted by Ige Predict program. T2 cells (2.5×10^5 cells/well) were cultured in the presence of E33 peptide or HLA-A2 leader peptide (10 μg/mL) in 96-well cell culture plate for overnight. Cell were collected and stained with PE anti-human HLA-E antibody followed by flow cytometric analysis (Panel A). […]
substance,measurement,setting,value
5′-GAGGCCAGCAGACUAUUUAUU-3′ [Derlin siRNA #1],Derlin-1 mRNA knockdown (KD),"Derlin-1 mRNA [1]; 25 nM siRNA, Day 1",36%
same,Derlin-1 mRNA knockdown (KD),"Derlin-1 mRNA [1]; 50 nM siRNA, Day 1",30%
same,Derlin-1 mRNA knockdown (KD),"Derlin-1 mRNA [2]; T2, 5 nM siRNA, Day 1",32%
same,Derlin-1 mRNA knockdown (KD),"Derlin-1 mRNA [2]; T2, 5 nM siRNA, Day 2",19%
same,Derlin-1 mRNA knockdown (KD),"Derlin-1 mRNA [2]; T2, 10 nM siRNA, Day 1",50%
same,Derlin-1 mRNA knockdown (KD),"Derlin-1 mRNA [2]; T2, 10 nM siRNA, Day 2",10%
same,Derlin-1 mRNA knockdown (KD),"Derlin-1 mRNA [2]; T2, 20 nM siRNA, Day 1",25%
same,Derlin-1 mRNA knockdown (KD),"Derlin-1 mRNA [2]; T2, 20 nM siRNA, Day 2",29%
Interferon β,HLA-E expression of immature MoDC cells,HLA-E [3],increasing intense expression
same,expression of HLA-G in CD4+ T cells,HLA-G,about two-fold
same,expression of HLA-G in CD8+ T cells,HLA-G,about two-fold
same,expression of HLA-G in CD19+ cells,HLA-G,increased
same,HLA-E expression in CD4+ T cells,HLA-E [4],decrease
same,HLA-E expression in CD8+ T cells,HLA-E [4],decrease
same,HLA-E expression in CD19+ cells,HLA-E [4],increased
"NPRKVTAYL (also: biotin, place not given here; listed as Homo sapiens) [HLA-E leader peptide]",increment of HLA-E binding signal,HLA-E [5]; leader peptide 1.0 μg/ml versus 0.1 μg/ml,~10 fold and ~15 fold
same,HLA-E binding signal (ELISA),HLA-E [5]; leader peptide addition at 0.1 μg/ml,around 0.02 OD
"O′me/G/O′me/ACUUGGGAGGAAGAAAUUU-3′ (siRNA; 2'-O-methyl at sense 5' end, DNA at antisense positions 1 and 8, further chemistry not given here; listed as Homo sapiens) [Derlin siRNA #3]",Derlin-1 mRNA knockdown (KD),"Derlin-1 mRNA [1]; 5 nM siRNA, Day 1",62%
same,Derlin-1 mRNA knockdown (KD),"Derlin-1 mRNA [1]; 5 nM siRNA, Day 2",37%
same,Derlin-1 mRNA knockdown (KD),"Derlin-1 mRNA [1]; 10 nM siRNA, Day 1",41%
same,Derlin-1 mRNA knockdown (KD),"Derlin-1 mRNA [1]; 10 nM siRNA, Day 2",33%
same,Derlin-1 mRNA knockdown (KD),"Derlin-1 mRNA [2]; T2, 1 nM siRNA, 6 Hours",59%
same,Derlin-1 mRNA knockdown (KD),"Derlin-1 mRNA [2]; T2, 2 nM siRNA, 6 Hours",33%
same,Derlin-1 mRNA knockdown (KD),"Derlin-1 mRNA [2]; T2, 4 nM siRNA, 6 Hours",28%
same,Derlin-1 mRNA knockdown (KD),"Derlin-1 mRNA [2]; T2, 8 nM siRNA, 6 Hours",17%
TMTLPATTL (listed as Homo sapiens) [E33],surface expression of HLA-E in T2 cells,HLA-E [6],stronger upregulation
"VMAPRTLLL (VMAPRTLVL; listed as Homo sapiens) [A 2 leader peptide, reference compound]",surface expression of HLA-E in T2 cells,HLA-E [6],enhanced surface expression
